This is an account of results in paper PMC12217544 (Scientific Reports, 2025).

In brackets after ≈: the same amount, converted by molar mass.

The subject of one data set is A549 cells. The conditions noted are these: MTT, ref [75]; cited from earlier work.
The next data set concerns SARS-CoV-2. As to conditions: SARS-CoV-2, Vero E6; ref [76]; cited from earlier work.
The test system of data set [1] is A/Puerto Rico/8/1934 H1N1. The conditions noted are these: A/Puerto Rico/8/1934 H1N1, quantitative real-time PCR; ref [75]; cited from earlier work. On the technique in general: In qPCR the cycle at which signal appears reflects the starting amount.
The nature of a further data set: in vitro. As to conditions: African green monkey, CC50, Vero E6 cells, crystal violet, 3 days.
The test system of another data set is Vero E6 cells. The conditions noted are these: MTT assay, ref [76]; cited from earlier work.

Regarding `Cc1ccc(C(C)C)c(O)c1` [Thymol], the half-maximal cytotoxic concentration in the data set on A549 cells is 49.4 µg/mL. Also, the “viral inhibition percentage (plaque reduction)” value in the data set with SARS-CoV-2 is reported as 96%. Also, the “concentration that effectively reduced the viral titer” value in data set [1] was 25 µg/mL. The values for the CC50 in “in vitro” and in the data set with Vero E6 cells were 63.3 µg/mL (≈ 421 µM) and 617 µM, respectively.
